# Laboratory results from ChEMBL document CHEMBL3885881, “DrugMatrix”.
# Organism: Rattus norvegicus
# Assay: DrugMatrix - Regimen: Daily Repeat
# Format: toxicity, organism-based, Sprague-Dawley
# Parameters: regimen Daily Repeat, gender Male, age 6-8 weeks
# Conditions: in vivo, po, route oral GAVAGE, vehicle 100 % SALINE
# [1] = 0 mg/kg, 72 h, tissue Plasma, dose level Control, time 3 day
# [2] = 0 mg/kg, 120 h, tissue Blood, dose level Control, time 5 day
# [3] = 0 mg/kg, 120 h, tissue Plasma, dose level Control, time 5 day
# [4] = 200 mg/kg, 72 h, tissue Blood, dose level Low, time 3 day
# [5] = 200 mg/kg, 72 h, tissue Plasma, dose level Low, time 3 day
# [6] = 200 mg/kg, 120 h, tissue Blood, dose level Low, time 5 day
# [7] = 200 mg/kg, 120 h, tissue Plasma, dose level Low, time 5 day
# [8] = 600 mg/kg, 72 h, tissue Blood, dose level High, time 3 day
# [9] = 600 mg/kg, 72 h, tissue Plasma, dose level High, time 3 day
# [10] = 600 mg/kg, 120 h, tissue Blood, dose level High, time 5 day
# [11] = 600 mg/kg, 120 h, tissue Plasma, dose level High, time 5 day
substance,measurement,setting,value
LEAD (II) ACETATE,ALANINE AMINOTRANSFERASE,[1],50.67 u/L
same,ALKALINE PHOSPHATASE,[1],356.33 u/L
same,ASPARTATE AMINOTRANSFERASE,[1],78.17 u/L
same,BLOOD UREA NITROGEN,[1],14.17 mg/dL
same,CARBON DIOXIDE,[1],31.33 mmol/L
same,CHLORIDE,[1],98.5 MEQ/L
same,CHOLESTEROL,[1],76.5 mg/dL
same,CREATINE PHOSPHOKINASE,[1],248.33 u/L
same,CREATININE,[1],0.2 mg/dL
same,LACTATE DEHYDROGENASE,[1],107 u/L
same,LIPASE,[1],9.83 u/L
same,PHOSPHORUS,[1],12.8 mg/dL
same,POTASSIUM,[1],6.75 MEQ/L
same,TOTAL BILIRUBIN,[1],0.18 mg/dL
same,TOTAL PROTEIN,[1],5.98 G/DL
same,URIC ACID,[1],1.42 mg/dL
same,ABSOLUTE BASOPHIL,[2],0 CELLS/uL
same,ABSOLUTE EOSINOPHIL,[2],0 CELLS/uL
same,ABSOLUTE LYMPHOCYTE,[2],8681.17 CELLS/uL
same,ABSOLUTE MONOCYTE,[2],79.83 CELLS/uL
same,ABSOLUTE SEGMENTED NEUTROPHIL,[2],689 CELLS/uL
same,BASOPHIL,[2],0%
same,EOSINOPHIL,[2],0%
same,ERYTHROCYTE COUNT,[2],5.49 x10E6/uL
same,HEMATOCRIT,[2],33.55%
same,HEMOGLOBIN,[2],13.1 G/DL
same,LEUKOCYTE COUNT,[2],9.45 x10E3/uL
same,LYMPHOCYTE,[2],92.33%
same,MEAN CORPUSCULAR HEMOGLOBIN,[2],23.92 pg
same,MEAN CORPUSCULAR HEMOGLOBIN CONCENTRATION,[2],39.07 G/DL
same,MONOCYTE,[2],0.67%
same,NEUTROPHIL,[2],7%
same,NUCLEATED RED BLOOD CELLS,[2],0.17 /100WBC
same,PLATELET COUNT,[2],1001.17 x10E3/uL
same,ALANINE AMINOTRANSFERASE,[3],49.33 u/L
same,ALKALINE PHOSPHATASE,[3],300.33 u/L
same,ASPARTATE AMINOTRANSFERASE,[3],83.5 u/L
same,BLOOD UREA NITROGEN,[3],16 mg/dL
same,CHLORIDE,[3],100.5 MEQ/L
same,CHOLESTEROL,[3],74.33 mg/dL
same,CREATINE PHOSPHOKINASE,[3],489.67 u/L
same,CREATININE,[3],0.35 mg/dL
same,GLUCOSE,[3],151 mg/dL
same,LACTATE DEHYDROGENASE,[3],133.67 u/L
same,LIPASE,[3],11.17 u/L
same,PHOSPHORUS,[3],10.88 mg/dL
same,POTASSIUM,[3],5.5 MEQ/L
same,SODIUM,[3],145.7 MEQ/L
same,TOTAL BILIRUBIN,[3],0.2 mg/dL
same,TOTAL PROTEIN,[3],6.05 G/DL
same,URIC ACID,[3],0.68 mg/dL
same,ABSOLUTE BASOPHIL,[4],0 CELLS/uL
same,ABSOLUTE EOSINOPHIL,[4],42 CELLS/uL
same,ABSOLUTE LYMPHOCYTE,[4],7845 CELLS/uL
same,ABSOLUTE MONOCYTE,[4],45.67 CELLS/uL
same,ABSOLUTE SEGMENTED NEUTROPHIL,[4],634 CELLS/uL
same,BASOPHIL,[4],0%
same,EOSINOPHIL,[4],0.67%
same,ERYTHROCYTE COUNT,[4],5.3 x10E6/uL
same,HEMATOCRIT,[4],32.4%
same,HEMOGLOBIN,[4],12.73 G/DL
same,LEUKOCYTE COUNT,[4],8.57 x10E3/uL
same,LYMPHOCYTE,[4],91.67%
same,MEAN CORPUSCULAR HEMOGLOBIN,[4],24.1 pg
same,MONOCYTE,[4],0.67%
same,NEUTROPHIL,[4],7%
same,NUCLEATED RED BLOOD CELLS,[4],0.67 /100WBC
same,PLATELET COUNT,[4],1060.33 x10E3/uL
same,ALANINE AMINOTRANSFERASE,[5],44.33 u/L
same,ALBUMIN,[5],4.1 G/DL
same,ALKALINE PHOSPHATASE,[5],338.33 u/L
same,ASPARTATE AMINOTRANSFERASE,[5],80.67 u/L
same,BLOOD UREA NITROGEN,[5],14 mg/dL
same,CHLORIDE,[5],100 MEQ/L
same,CHOLESTEROL,[5],80 mg/dL
same,CREATINE PHOSPHOKINASE,[5],412 u/L
same,CREATININE,[5],0.48 mg/dL
same,GLUCOSE,[5],189.33 mg/dL
same,LACTATE DEHYDROGENASE,[5],140.33 u/L
same,LIPASE,[5],11.67 u/L
same,PHOSPHORUS,[5],13.53 mg/dL
same,POTASSIUM,[5],5.59 MEQ/L
same,TOTAL BILIRUBIN,[5],0.13 mg/dL
same,TOTAL PROTEIN,[5],5.93 G/DL
same,URIC ACID,[5],1.37 mg/dL
same,ABSOLUTE BASOPHIL,[6],0 CELLS/uL
same,ABSOLUTE EOSINOPHIL,[6],25 CELLS/uL
same,ABSOLUTE MONOCYTE,[6],82.67 CELLS/uL
same,ABSOLUTE SEGMENTED NEUTROPHIL,[6],668 CELLS/uL
same,BASOPHIL,[6],0%
same,EOSINOPHIL,[6],0.33%
same,ERYTHROCYTE COUNT,[6],5.28 x10E6/uL
same,HEMATOCRIT,[6],32.07%
same,HEMOGLOBIN,[6],12.83 G/DL
same,LEUKOCYTE COUNT,[6],11.1 x10E3/uL
same,LYMPHOCYTE,[6],92.67%
same,MEAN CORPUSCULAR HEMOGLOBIN,[6],24.3 pg
same,MEAN CORPUSCULAR HEMOGLOBIN CONCENTRATION,[6],40.03 G/DL
same,MONOCYTE,[6],0.67%
same,NEUTROPHIL,[6],6.33%
same,NUCLEATED RED BLOOD CELLS,[6],0.67 /100WBC
same,PLATELET COUNT,[6],1339.67 x10E3/uL
same,ALANINE AMINOTRANSFERASE,[7],57.33 u/L
same,ALBUMIN,[7],3.9 G/DL
same,ALKALINE PHOSPHATASE,[7],297 u/L
same,ASPARTATE AMINOTRANSFERASE,[7],91 u/L
same,BLOOD UREA NITROGEN,[7],14.33 mg/dL
same,CARBON DIOXIDE,[7],30 mmol/L
same,CHLORIDE,[7],99.33 MEQ/L
same,CHOLESTEROL,[7],71.33 mg/dL
same,CREATINE PHOSPHOKINASE,[7],225 u/L
same,CREATININE,[7],0.46 mg/dL
same,LACTATE DEHYDROGENASE,[7],122 u/L
same,LIPASE,[7],9 u/L
same,PHOSPHORUS,[7],10.9 mg/dL
same,POTASSIUM,[7],5.95 MEQ/L
same,TOTAL BILIRUBIN,[7],0.13 mg/dL
same,TOTAL PROTEIN,[7],6.23 G/DL
same,URIC ACID,[7],0.7 mg/dL
same,ABSOLUTE BASOPHIL,[8],0 CELLS/uL
same,ABSOLUTE EOSINOPHIL,[8],32.67 CELLS/uL
same,ABSOLUTE LYMPHOCYTE,[8],9967.33 CELLS/uL
same,ABSOLUTE MONOCYTE,[8],129.67 CELLS/uL
same,ABSOLUTE SEGMENTED NEUTROPHIL,[8],570.33 CELLS/uL
same,BASOPHIL,[8],0%
same,EOSINOPHIL,[8],0.33%
same,ERYTHROCYTE COUNT,[8],5.69 x10E6/uL
same,HEMATOCRIT,[8],34.9%
same,HEMOGLOBIN,[8],13.73 G/DL
same,LEUKOCYTE COUNT,[8],10.7 x10E3/uL
same,LYMPHOCYTE,[8],92.67%
same,MEAN CORPUSCULAR HEMOGLOBIN,[8],24.13 pg
same,NEUTROPHIL,[8],5.67%
same,NUCLEATED RED BLOOD CELLS,[8],0.33 /100WBC
same,PLATELET COUNT,[8],964.67 x10E3/uL
same,ALANINE AMINOTRANSFERASE,[9],56.67 u/L
same,ALKALINE PHOSPHATASE,[9],262 u/L
same,ASPARTATE AMINOTRANSFERASE,[9],84.33 u/L
same,BLOOD UREA NITROGEN,[9],13.33 mg/dL
same,CHLORIDE,[9],99 MEQ/L
same,CREATINE PHOSPHOKINASE,[9],319.33 u/L
same,CREATININE,[9],0.55 mg/dL
same,LACTATE DEHYDROGENASE,[9],97 u/L
same,LIPASE,[9],14.33 u/L
same,PHOSPHORUS,[9],11.57 mg/dL
same,POTASSIUM,[9],5.33 MEQ/L
same,TOTAL BILIRUBIN,[9],0.1 mg/dL
same,TOTAL PROTEIN,[9],5.83 G/DL
same,URIC ACID,[9],0.87 mg/dL
same,ABSOLUTE BASOPHIL,[10],0 CELLS/uL
same,ABSOLUTE EOSINOPHIL,[10],20.67 CELLS/uL
same,ABSOLUTE LYMPHOCYTE,[10],6898.67 CELLS/uL
same,ABSOLUTE MONOCYTE,[10],79.33 CELLS/uL
same,ABSOLUTE SEGMENTED NEUTROPHIL,[10],568 CELLS/uL
same,BASOPHIL,[10],0%
same,EOSINOPHIL,[10],0.33%
same,ERYTHROCYTE COUNT,[10],5.67 x10E6/uL
same,HEMATOCRIT,[10],33.33%
same,HEMOGLOBIN,[10],12.97 G/DL
same,LEUKOCYTE COUNT,[10],7.57 x10E3/uL
same,LYMPHOCYTE,[10],90.67%
same,MEAN CORPUSCULAR HEMOGLOBIN,[10],22.87 pg
same,MEAN CORPUSCULAR HEMOGLOBIN CONCENTRATION,[10],38.93 G/DL
same,MEAN CORPUSCULAR VOLUME,[10],58.77 fL
same,MONOCYTE,[10],1%
same,NEUTROPHIL,[10],8%
same,NUCLEATED RED BLOOD CELLS,[10],0 /100WBC
same,PLATELET COUNT,[10],1398 x10E3/uL
same,ALANINE AMINOTRANSFERASE,[11],48 u/L
same,ALBUMIN,[11],4 G/DL
same,ALKALINE PHOSPHATASE,[11],286.67 u/L
same,ASPARTATE AMINOTRANSFERASE,[11],92.67 u/L
same,BLOOD UREA NITROGEN,[11],13.33 mg/dL
same,CHOLESTEROL,[11],76 mg/dL
same,CREATINE PHOSPHOKINASE,[11],510.67 u/L
same,CREATININE,[11],0.28 mg/dL
same,GLUCOSE,[11],157.67 mg/dL
same,LACTATE DEHYDROGENASE,[11],162.67 u/L
same,LIPASE,[11],11 u/L
same,POTASSIUM,[11],4.79 MEQ/L
same,TOTAL BILIRUBIN,[11],0.13 mg/dL
same,TOTAL PROTEIN,[11],5.6 G/DL
same,URIC ACID,[11],0.33 mg/dL
